This note sets out measurements from patent US20250026745A1 (Bluejay Therapeutics, Inc., priority 2023, published 2025).

The target of experiment [1] is recombinant 17β-HSD13 protein (Homo sapiens (Human), UniProt Q7Z5P4). Put plainly: 17β-HSD13 biochemical assay (NAD+/NADH Glo chemiluminescence). Conditions: 17β-HSD13 50 nM, NAD+ 10 mM, β-estradiol 20 μM, 2 hours room temperature. The procedure: 17β-HSD13 biochemical assays are generically described in patents WO 2022/020730, WO 2021/003295, and WO 2023/023310. More specifically, recombinant 17β-HSD13 protein was assayed in a buffer containing 200 mM Tris pH 7.5, 0.01% Triton X-100, and 0.02% BSA into a 384-well assay plate. Compounds were incubated with 17β-HSD13 (final 50 nM) and NAD+ (final 10 mM) at room temperature for 1 h prior to substrate addition. The assay reaction was then initiated by addition of β-estradiol (final 20 μM), and the reaction mixture was incubated for 2 hours at room temperature. Product formation was detected with chemiluminescence by adding equal volume of NAD+/NADH Glo reagent (Promega, #G9062) and read on a PHERAstar microplate reader (BMG LABTECH). IC50 values were determined with GraphPad Prism®, where log-transformed concentration values and the inhibition data were fitted to a four-parameter logistic equation. Y=Bottom+(Top−Bottom)/(1+10^((Log IC50−X)*HillSlope)). The original, % control, or % inhibition data are represented by Y along with their minimal (Bottom) and maximal (Top) values. The inhibitor concentration is represented by X, IC50 is the concentration at 50% maximal value, and Hill Slope is the slope factor.
Chain of recombinant 17β-HSD13 protein (Q7Z5P4 20-300): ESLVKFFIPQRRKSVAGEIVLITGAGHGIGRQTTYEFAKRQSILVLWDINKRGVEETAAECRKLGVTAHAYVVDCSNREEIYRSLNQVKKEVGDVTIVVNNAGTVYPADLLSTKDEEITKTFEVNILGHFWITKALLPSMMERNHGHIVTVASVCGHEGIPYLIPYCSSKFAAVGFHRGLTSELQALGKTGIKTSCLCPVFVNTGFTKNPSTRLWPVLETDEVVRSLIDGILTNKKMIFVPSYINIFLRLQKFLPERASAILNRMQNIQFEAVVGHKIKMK

Experiment [2] concerns the target HEK293 cells expressing 17β-HSD13 (Homo sapiens (Human), UniProt Q7Z5P4). Put plainly: 17β-HSD13 cell-based assay (β-estradiol conversion, LC-MS/MS). The protocol:
HEK293 cells expressing 17β-HSD13 either stably or transiently were incubated with compounds for 60 min at 37° C. in a humidified incubator. After this first incubation step, β-estradiol was added to each well of the microtiter plate and incubated for 3 h at 37° C. in the humidified incubator. After treatment with β-Estradiol, 50 μL of supernatant was transferred to a 96-V plate containing 100 μL acetonitrile and centrifuged at 3900 rpm for 45 min. Finally, 50 μL of supernatant were taken for LC-MS/MS analysis. The chromatography part was run on a Xbridge 30 mm×2.1 mm column (Waters), at 40 degrees Celsius and a flow rate of 0.8 mL/min for 5 min, while the MS was done on a Q Exactive Orbitrap (Fisher Scientific) in Target SIM mode and negative polarity with a spray voltage of 3.5 kV. EC50 values were determined with GraphPad Prism®, where log-transformed concentration values and the inhibition data were fitted to a four-parameter logistic equation. Y=Bottom+(Top−Bottom)/(1+10^((Log EC50−X)*Hill Slope)). The original, % control, or % inhibition data are represented by Y along with their minimal (Bottom) and maximal (Top) values. The inhibitor concentration is represented by X, EC50 is the concentration at 50% maximal value, and Hill Slope is the slope factor.

[3] abbreviates: HEK293 cells stably expressing 17β-HSD13 (footnote b), read-out: EC50, nM Stable.
Where [4] appears, read: HEK293 cells transiently expressing 17β-HSD13 (footnote a), read-out: EC50, nM Transient.

Read-outs that look alike come from different tables or passages of the source.

Chain of HEK293 cells expressing 17β-HSD13 (Q7Z5P4 20-300): as above

For the compound `O=C1N([C@@H](c2ccccc2)C(F)(F)F)C(=O)C2(CC2)N1Cc1nnc(-c2ccc(F)c(O)c2F)s1` [Compound I-99A, 4-[[5-(2,4-difluoro-3-hydroxy-phenyl)-1,3,4-thiadiazol-2-yl]methyl]-6-[(1S)-2,2,2-trifluoro-1-phenyl-ethyl]-4,6-diazaspiro[2.4]heptane-5,7-dione], in experiment [1], the IC50 stood at 1.17 ± 0.185 nM. In addition, the EC50 in experiment [2] (setting [3]) is 4.95 ± 0.0122 nM. As for `CCN1C(=O)N(Cc2nnc(-c3ccc(F)c(O)c3F)s2)C2(CC2)C1=O` [Compound I-7, 4-((5-(2,4-difluoro-3-hydroxyphenyl)-1,3,4-thiadiazol-2-yl)methyl)-6-ethyl-4,6-diazaspiro[2.4]heptane-5,7-dione], the IC50 in experiment [1] amounted to 16.6 ± 8.74 nM. In addition, the EC50 in experiment [2] (setting [4]) worked out at 18.8 nM. For the compound `CC(C)(C)N1C(=O)N(Cc2nnc(-c3ccc(F)c(O)c3Cl)s2)C2(CC2)C1=O` [Compound I-50, 6-(tert-butyl)-4-((5-(2-chloro-4-fluoro-3-hydroxyphenyl)-1,3,4-thiadiazol-2-yl)methyl)-4,6-diazaspiro[2.4]heptane-5,7-dione], the IC50 in experiment [1] amounted to 4.6 nM. In experiment [2] (setting [3]), the EC50 is 35.1 ± 6.03 nM. Take `O=C1N(CC(F)(F)F)C(=O)C2(CC2)N1Cc1nnc(-c2ccc(F)c(O)c2F)s1` [Compound I-15, 4-((5-(2,4-difluoro-3-hydroxyphenyl)-1,3,4-thiadiazol-2-yl)methyl)-6-(2,2,2-trifluoroethyl)-4,6-diazaspiro[2.4]heptane-5,7-dione]: the IC50 in experiment [1] worked out at 8.07 ± 1.77 nM. In experiment [2] (setting [3]), the half-maximal effective concentration (EC50) came to 40.9 ± 25 nM. For `O=C1N(Cc2ccccc2)C(=O)C2(CC2)N1Cc1nnc(-c2cc(C(F)(F)F)cc(O)c2F)s1` [Compound I-55, 6-benzyl-4-((5-(2-fluoro-3-hydroxy-5-(trifluoromethyl)phenyl)-1,3,4-thiadiazol-2-yl)methyl)-4,6-diazaspiro[2.4]heptane-5,7-dione] the same measures were 2.14 nM and 29.2 nM.

Consider `C[C@@H](c1ccccc1)N1C(=O)N(Cc2nnc(-c3ccc(F)c(O)c3F)s2)C2(CC2)C1=O` [Compound I-83, (S)-4-((5-(2,4-difluoro-3-hydroxyphenyl)-1,3,4-thiadiazol-2-yl)methyl)-6-(1-phenylethyl)-4,6-diazaspiro[2.4]heptane-5,7-dione], for which the IC50 in experiment [1] worked out at 2 ± 0.588 nM. The EC50 in experiment [2] (setting [3]) turned out to be 10.4 nM. On to `O=C1N(Cc2ccccc2)C(=O)C2(CC2)N1Cc1nnc(-c2cc(F)c(F)c(O)c2F)s1` [Compound I-69, 6-benzyl-4-((5-(2,4,5-trifluoro-3-hydroxyphenyl)-1,3,4-thiadiazol-2-yl)methyl)-4,6-diazaspiro[2.4]heptane-5,7-dione], for which the EC50 in experiment [2] (setting [3]) came to 21.5 nM.

With `O=C1N([C@@H](c2ccccc2)C(F)(F)F)C(=O)C2(CC2)N1Cc1nnc(-c2ccc(F)c(O)c2Cl)s1` [Compound I-52, 4-[[5-(2-chloro-4-fluoro-3-hydroxy-phenyl)-1,3,4-thiadiazol-2-yl]methyl]-6-[(1S)-2,2,2-trifluoro-1-phenyl-ethyl]-4,6-diazaspiro[2.4]heptane-5,7-dione], the IC50 in experiment [1] came to 1.09 ± 0.23 nM. In addition, the EC50 in experiment [2] (setting [3]) came to 6.41 ± 1.23 nM.

Turning to `CCN1C(=O)N(Cc2nnc(-c3ccc(Cl)c(O)c3Cl)s2)C2(CC2)C1=O` [Compound I-9, 4-((5-(2,4-dichloro-3-hydroxyphenyl)-1,3,4-thiadiazol-2-yl)methyl)-6-ethyl-4,6-diazaspiro[2.4]heptane-5,7-dione], the IC50 in experiment [1] came out at 150 nM. For the same compound, the concentration for a half-maximal effect (EC50) in experiment [2] (setting [4]) came out at 960 nM.

In the case of `O=C1N(C(c2ccc(F)cc2F)C(F)(F)F)C(=O)C2(CC2)N1Cc1nnc(-c2ccc(F)c(O)c2Cl)s1` (single isomer, unassigned) [Compound I-54A], the IC50 in experiment [1] came out at 0.857 ± 0.153 nM. In addition, the EC50 in experiment [2] (setting [3]) stood at 5.63 ± 0.961 nM. Consider `CCN1C(=O)N(Cc2nnc(-c3ccc(F)c(O)c3Cl)s2)C2(CC2)C1=O` [Compound I-10, 4-((5-(2-chloro-4-fluoro-3-hydroxyphenyl)-1,3,4-thiadiazol-2-yl)methyl)-6-ethyl-4,6-diazaspiro[2.4]heptane-5,7-dione], for which the IC50 in experiment [1] amounted to 17.9 ± 0.0566 nM. Moreover, the EC50 in experiment [2] (setting [3]) came out at 51 nM; in experiment [2] (setting [4]), 118 nM. As to `CC[C@@H](C)N1C(=O)N(Cc2nnc(-c3ccc(F)c(O)c3F)s2)C2(CC2)C1=O` [Compound I-42, (R)-6-(sec-butyl)-4-((5-(2,4-difluoro-3-hydroxyphenyl)-1,3,4-thiadiazol-2-yl)methyl)-4,6-diazaspiro[2.4]heptane-5,7-dione], the IC50 in experiment [1] came out at 4.08 nM. Besides, the EC50 in experiment [2] (setting [3]) is 15.7 nM. `O=C1N(Cc2ccccc2)C(=O)C2(CC2)N1Cc1nnc(-c2cc(C(F)(F)F)c(F)c(O)c2F)s1` [Compound I-57, 6-benzyl-4-((5-(2,4-difluoro-3-hydroxy-5-(trifluoromethyl)phenyl)-1,3,4-thiadiazol-2-yl)methyl)-4,6-diazaspiro[2.4]heptane-5,7-dione]: the IC50 in experiment [1] was found to be 2.46 nM. In addition, the half-maximal effective concentration (EC50) in experiment [2] (setting [3]) was found to be 52.7 nM. For `O=C1N(CC(F)(F)F)C(=O)C2(CC2)N1Cc1nnc(-c2cc(F)c(F)c(O)c2F)s1` [Compound I-68, 4-((5-(2,4,5-trifluoro-3-hydroxyphenyl)-1,3,4-thiadiazol-2-yl)methyl)-6-(2,2,2-trifluoroethyl)-4,6-diazaspiro[2.4]heptane-5,7-dione], the EC50 in experiment [2] (setting [3]) stood at 35 nM. Still for that read-out and setting: as for `O=C1N(Cc2ccccc2)C(=O)C2(CC2)N1Cc1nnc(-c2cc(C(F)F)c(F)c(O)c2F)s1` [Compound I-65, 6-benzyl-4-((5-(5-(difluoromethyl)-2,4-difluoro-3-hydroxyphenyl)-1,3,4-thiadiazol-2-yl)methyl)-4,6-diazaspiro[2.4]heptane-5,7-dione], the figure is 19.2 nM. In the case of `O=C1N(C2CC2)C(=O)C2(CC2)N1Cc1nnc(-c2ccc(F)c(O)c2F)s1` [Compound I-43, 6-cyclopropyl-4-((5-(2,4-difluoro-3-hydroxyphenyl)-1,3,4-thiadiazol-2-yl)methyl)-4,6-diazaspiro[2.4]heptane-5,7-dione], the IC50 in experiment [1] was 18.5 nM. Consider `N#Cc1ccccc1CN1C(=O)N(Cc2nnc(-c3ccc(F)c(O)c3Cl)s2)C2(CC2)C1=O` [Compound I-38, 2-((4-((5-(2-chloro-4-fluoro-3-hydroxyphenyl)-1,3,4-thiadiazol-2-yl)methyl)-5,7-dioxo-4,6-diazaspiro[2.4]heptan-6-yl)methyl)benzonitrile], for which, in experiment [1], the IC50 amounted to 39.4 nM. The same measure, in the same setting: as for `O=C1N(CCc2ccccc2)C(=O)C2(CC2)N1Cc1nnc(-c2ccc(F)c(O)c2Cl)s1` [Compound I-37, 4-((5-(2-chloro-4-fluoro-3-hydroxyphenyl)-1,3,4-thiadiazol-2-yl)methyl)-6-phenethyl-4,6-diazaspiro[2.4]heptane-5,7-dione], the figure is 32.7 nM; as for `O=C1N(Cc2nnc(-c3ccc(F)c(O)n3)s2)C2(CC2)C(=O)N1C1(c2ccccc2)CC1` [Compound I-104, 4-((5-(5-fluoro-6-hydroxypyridin-2-yl)-1,3,4-thiadiazol-2-yl)methyl)-6-(1-phenylcyclopropyl)-4,6-diazaspiro[2.4]heptane-5,7-dione], 176 nM. For the compound `CCN1C(=O)N(Cc2nnc(-c3cnc(F)c(O)c3)s2)C2(CC2)C1=O` [Compound I-2, 6-ethyl-4-((5-(6-fluoro-5-hydroxypyridin-3-yl)-1,3,4-thiadiazol-2-yl)methyl)-4,6-diazaspiro[2.4]heptane-5,7-dione], the IC50 in experiment [1] worked out at 156 nM. Same read-out and setting: the same measure for `O=C1N(CC(F)(F)F)C(=O)C2(CC2)N1Cc1nnc(-c2cc(C3CC3)c(F)c(O)c2F)s1` [Compound I-62, 4-((5-(5-cyclopropyl-2,4-difluoro-3-hydroxyphenyl)-1,3,4-thiadiazol-2-yl)methyl)-6-(2,2,2-trifluoroethyl)-4,6-diazaspiro[2.4]heptane-5,7-dione]: 84.9 nM; for “(R)-4-((5-(2,4-difluoro-3- hydroxyphenyl)-1,3,4-thiadiazol-2- yl)methyl)-6-(1-hydroxypropan-2- yl)-4,6-diazaspiro[2.4]heptane-5,7- dione [Compound I-46]”: 66 nM; for `CCN1C(=O)N(Cc2nnc(-c3ccc(F)c(O)c3F)s2)C2(CCC2)C1=O` [Compound I-1, 5-((5-(2,4-difluoro-3-hydroxyphenyl)-1,3,4-thiadiazol-2-yl)methyl)-7-ethyl-5,7-diazaspiro[3.4]octane-6,8-dione]: 56.7 nM.
